Read-outs that look alike come from different tables or passages of the source.
System: plated rat hepatocytes
Experiment: In vitro uptake kinetics of gadoxetate in plated rat hepatocytes (mechanistic hepatocyte model)
Assay type: in vitro ADME
Conditions: for % passive: CLpassive,u/(CLactive,u + CLpassive,u); for CLactive,u: Vmax/Km,u; for Km: read-out: Km,u
Experimental: Male adult Sprague-Dawley rats (Charles River, Margate, Kent, UK) were housed in groups of two in individually ventilated cages with free access to food (Chow rat and mouse diet) and fresh drinking water. The designated rat housing facility maintained a controlled temperature (20 ± 3 °C), humidity (40–70%), and 12 h light/dark cycle conditions. All animal protocols were approved by the University of Manchester review committee and adhered to the UK Home Office Animals (Scientific Procedures) Act (1986). Rats (250–300 g) were sacrificed using CO2 overdose followed by cervical dislocation in the morning of the study day. The kinetics experiment, as described below, was performed using n = 4 animals. A minimum of n = 3 was required to explore interanimal variability in kinetic parameters, with surplus hepatocytes also used from an additional animal that was part of a separate project. Primary rat hepatocytes, prepared as described below, were used to evaluate test compound cytotoxicity/effect on hepatocyte attachment (n = 3), preliminary assays to determine uptake assay conditions (n = 4), and for assays that were failed, for example, poor cell viability (n = 6 animals).
Isolation of hepatocytes using ex vivo collagenase perfusion was performed, followed by cell count and viability assessment, as previously described.[34]−[36] Cell preparations with viability <85% were not used for experiments. Hepatocytes were seeded at 240,000 cells per well in collagen I-coated 24-well plates, and incubated for at least 2 h at 37 °C and 95% air/5% CO2 to allow cell attachment to the plate.[36]
Uptake experiments were performed at 37 °C with duplicate incubations per condition, as previously described.[35] Uptake of gadoxetate (Primovist injection solution, Bayer, Germany) was evaluated following incubation (0.5–150 min) at nominal media concentrations of 0.01–10 mM. Extended incubation timepoints (up to 150 min) were selected based on previous publications[35] and existing in-house data to enable characterization of the steady-state intracellular concentration. Uptake of pitavastatin (Sequoia Research Products Ltd, Pangbourne, UK) (0.2 μM) in the absence and presence of a pan-inhibitor of uptake transporters, rifamycin SV (Sigma-Aldrich, Poole, UK) (100 μM), was also evaluated for 0.5–2 min as positive control for functional transporter activity. Following sample preparation including addition of internal standard (Table S1), gadoxetate and pitavastatin in cell samples, and gadoxetate in media samples, were quantified by liquid chromatography–tandem mass spectrometry (LC–MS/MS). LC–MS/MS quantification was performed using selective reaction monitoring (SRM) against calibration standards; only standards within 30% of nominal concentration were included. The protein content of plated rat hepatocytes was measured using the Pierce BCA Protein Assay Kit (Thermo Fisher Scientific, Paisley, UK).
In vitro hepatocyte uptake (i.e., the amount of gadoxetate in cell as quantified by LC–MS/MS) (pmol) at each time point was normalized for cellularity using the measured protein content and assuming that 10^6 hepatocytes contain 1 mg protein.[34] For gadoxetate, the data from each animal were used for simultaneous estimation of in vitro kinetic parameters using a mechanistic hepatocyte model reported previously.[35] It should be noted that CLpassive,u implies nonsaturable clearance equal in both directions under experimental conditions (0.01–10 mM). [drawing 1] 1 where Km,u represents the unbound Michaelis constant (μM); Vmax the maximum transport rate (pmol/min/10^6 cells); and fu,cell the fraction unbound in cell and nonsaturable, bidirectional clearance (CLpassive,u; μL/min/10^6 cells). ccell and cmedium represent concentrations in cell and medium compartments, respectively, and Vcell represents the cell volume.
Intracellular concentrations were calculated assuming a hepatocyte cell volume of 3.9 μL/10^6 cells.[35] […]

maximum % active (CLactive,u/(CLactive,u + CLpassive,u), animal 1): 97%
maximum % active (CLactive,u/(CLactive,u + CLpassive,u), animal 2): 94%
maximum % active (CLactive,u/(CLactive,u + CLpassive,u), animal 3): 91%
maximum % active (CLactive,u/(CLactive,u + CLpassive,u), animal 4): 94%
% passive (animal 1): 3%
% passive (animal 2): 6%
% passive (animal 3): 9%
% passive (animal 4): 6%
% passive (average of n = 4 animals): 6%
CLactive,u (animal 1): 3.07 μL/min/10^6 cells
CLactive,u (animal 2): 3.20 μL/min/10^6 cells
CLactive,u (animal 3): 2.78 μL/min/10^6 cells
CLactive,u (animal 4): 3.20 μL/min/10^6 cells
CLactive,u (average of n = 4 animals): 3.06 μL/min/10^6 cells
CLpassive,u (animal 1): 0.091 μL/min/10^6 cells
Km (animal 1): 114 µM
CLpassive,u (animal 2): 0.202 μL/min/10^6 cells
Km (animal 2): 116 µM
CLpassive,u (animal 3): 0.274 μL/min/10^6 cells
Km (animal 3): 79.8 µM
CLpassive,u (animal 4): 0.203 μL/min/10^6 cells
Km (animal 4): 115 µM
CLpassive,u (average of n = 4 animals): 0.193 μL/min/10^6 cells
Km (average of n = 4 animals (CV %)): 106 µM
maximum % active (contribution of active saturable uptake to total uptake, average of n = 4 animals): 94%
fu,liv,cell (fraction unbound in cell (fu,cell), average of n = 4 animals (CV %)): 0.648
fu,liv,cell (fraction unbound in cell (fu,cell), average of n = 4 animals (CV %), listed as Gadoxetate): 0.65 (24%)
fu,liv,cell (fraction unbound in cell, animal 1): 0.759
fu,liv,cell (fraction unbound in cell, animal 2): 0.709
fu,liv,cell (fraction unbound in cell, animal 3): 0.418
fu,liv,cell (fraction unbound in cell, animal 4): 0.704
Compound: CCOc1ccc(C[C@@H](CN(CCN(CC(=O)[O-])CC(=O)[O-])CC(=O)[O-])N(CC(=O)[O-])CC(=O)[O-])cc1.[Gd+3].[H+].[H+] [gadoxetate]
Vmax (animal 1): 350.4 pmol/min/10^6 cells
Vmax (animal 2): 370.9 pmol/min/10^6 cells
Vmax (animal 3): 221.7 pmol/min/10^6 cells
Vmax (animal 4): 368.8 pmol/min/10^6 cells
Vmax (average of n = 4 animals): 327.95 pmol/min/10^6 cells

From publication PMC8397403, “Physiologically Based Pharmacokinetic Modeling of Transporter-Mediated Hepatic Disposition of Imaging Biomarker Gadoxetate in Rats” (Molecular Pharmaceutics, 2021)
